From patent publication US20100061994A1, “MEDICAL USES OF 39-DESMETHOXYRAPAMYCIN AND ANALOGUES THEREOF” (priority 2005, published 2010)

Legend:
FKBP12 = FKBP12 (Homo sapiens, UniProt P62942); test: In vitro FKBP12 binding assay (GdnHCl unfolding); conditions: relative to literature Kd of rapamycin 0.2 nM
Excerpt: FKBP12 reversibly unfolds in the chemical denaturant guandinium hydrochloride (GdnHCl) and the unfolding can be monitored by the change in the intrinsic fluorescence of the protein (Main et al, 1998). Ligands which specifically bind and stabilise the native state of FKBP12 shift the denaturation curve such that the protein unfolds at higher concentrations of chemical denaturant (Main et al, 1999). From the difference in stability, the ligand-binding constant can be determined using equation 1.
where ΔGapp is the apparent difference in free energy of unfolding between free and ligand-bound forms, ΔGD−N^H^2^O is the free energy of unfolding in water of free protein, [L] the concentration of ligand and kd the dissociation constant for the protein-ligand complex (Meiering et al, 1992). The free energy of unfolding can be related to the midpoint of the unfolding transition using the following equation: […]
where mD−N is a constant for a given protein and given denaturant and which is proportional to the change in degree of exposure of residues on unfolding (Tanford 1968 and Tanford 1970), and [D]50% is the concentration of denaturant corresponding to the midpoint of unfolding.
where <mD−N> is the average m-value of the unfolding transition and Δ[D]50% the difference in midpoints for the rapamycin-FKBP12 unfolding transition and unknown-ligand-FKBP12 complex unfolding transition. Under conditions where [L]>Kd, then, ΔΔGD−N, can be related to the relative Kds of the two compounds through equation 4: […]

EAE = test: Experimental allergic encephalomyelitis (EAE) model of multiple sclerosis; format: in vivo, male Lewis rats
[1] = mouse, in vivo
Protocol: The test compounds were prepared in a vehicle consisting of 4% Ethanol, 5% Tween-20, 5% polyethyleneglycol 400 in 0.15M NaCl. A single dbse of 10 mg/kg p.o. or 3 mg/kg i.v. was administered to groups of female CD1 mice (3 mice for each compound per time point). At 0 min, 4 min, 15 min, 1 h, 4 h, and 24 h groups were sacrificed and the blood and the brain were collected from each mouse for further analysis.
The brain samples were snap frozen in liquid nitrogen and stored at −20° C. A minimum of 0.2 mL of whole blood from each animal was collected in tubes containing ethylene diamine tetra-acetic acid (EDTA) as anticoagulant, thoroughly mixed, and stored at −20° C.
Analysis was performed by ASI Limited, (St George's Hospital Medical School, London). The concentration of the test compound in the blood and brain samples supplied was determined by HPLC with MS detection. Control, test compound free, blood samples were obtained from Harlan Sera-Lab Limited, (Loughborough, England). Time zero brain samples were supplied as control, test compound free, brain samples.
One hemisphere of each brain was homogenized with 5 mL water.
The control or test sample of mouse brain or blood (0.05 mL), internal standard solution (0.1 mL), 5% Zinc sulphate solution (0.5 mL), and acetone (0.5 mL) were pipetted into a 2 mL polypropylene tube (Sarstedt Limited, Beaumont Leys, Leicester, UK) and the contents were then mixed for a minimum of 5 minutes (IKA-Vibrax-VXR mixer, Merck (BDH) Limited, Poole Dorset, UK). The tubes were then centrifuged in a microfuge for a minimum of 2 minutes. The solvent layer was decanted into a 4.5 mL polypropylene tube containing sodium hydroxide (0.1M, 0.1 mL) and methyl-tert-butyl ether (MTBE, 2 mL). The tube was then mixed for a minimum of 5 minutes (IKA-Vibrax-VXR mixer) and then centrifuged at 3500 rpm for 5 minutes. The solvent layer was transferred to a 4.5 mL conical polypropylene tube, placed in a SpeedVac® and evaporated to dryness.
The dried extracts were reconstituted with 0.15 mL 80% methanol and mixed for a minimum of 5 minutes (IKA-Vibrax-VXR mixer) and centrifuged at 3500 rpm for 5 minutes. The extract was transferred to auto sampler tubes (NLG Analytical, Adelphi Mill, Bollington, Cheshire, UK) and placed into the auto-sampler tray which was set at ambient temperature. The auto-sampler was programmed to inject a 0.03 mL aliquot of each extract onto the analytical column.
The AUC for each compound in blood or in brain tissue was calculated using Kinetica 4.4 (InnaPhase Corporation), using a non-compartmental model and the trapezoidal method for AUC calculation.
The partition coefficient (Ri) for each compound after p.o. and i.v. administration was calculated as shown below:
The partition coefficient (R) for each compound after i.v. administration was calculated as shown below:

HOP-62 = test: Monolayer assay Protocol 2 (SRB), high MDR-expressing cell lines; format: cell-based; conditions: Homo sapiens; NSCLC HOP-62, high MDR-expressing, 48 h
Protocol: (§1) The human tumor cell lines of the National Cancer Institute (NCI) cancer screening panel were grown in RPMI 1640 medium containing 5% fetal bovine serum and 2 mM L-glutamine (Boyd and Paull, 1995). Cells were inoculated into 96 well microtiter plates in 0.1 mL at plating densities ranging from 5,000 to 40,000 cells/well depending on the doubling time of individual cell lines. After cell inoculation, the microtiter plates were incubated at 37° C., 5% CO2, 95% air and 100% relative humidity for 24 h prior to addition of experimental drugs.
(§2) After 24 h, two plates of each cell line were fixed in situ with trichloroacetic acid (TCA), to represent a measurement of the cell population for each cell line at the time of drug addition (Tz). Experimental drugs were solubilized in dimethyl sulfoxide at 400-fold the desired final maximum test concentration and stored frozen prior to use. At the time of drug addition, an aliquot of frozen concentrate was thawed and diluted to twice the desired final maximum test concentration with complete medium containing 0.05 mg/mL gentamicin. Additional four, 10-fold or ½ log serial dilutions were made to provide a total of five drug concentrations plus control. […]
(§3) Following drug addition, the plates were incubated for an additional 48 h at 37° C., 5% CO2, 95% air, and 100% relative humidity. […] Bound stain was subsequently solubilized with 10 mM trizma base, and the absorbance was read on an automated plate reader at a wavelength of 515 nm. […] Using the seven absorbance measurements [time zero, (Tz), control growth, (C), and test growth in the presence of drug at the five concentration levels (Ti)], the percentage growth was calculated at each of the drug concentrations levels. Percentage growth inhibition was calculated as:
(§4) Three dose response parameters were calculated for each experimental agent. […] The drug concentration resulting in total growth inhibition (TGI) was calculated from Ti=Tz. […]

SW-620 = test: as above; format: cell-based; conditions: Homo sapiens; Colon SW-620, high MDR-expressing, 48 h
Protocol: as §1, §2, §3, §4

UO-31 = test: as above; format: cell-based; conditions: Homo sapiens; Renal UO-31, high MDR-expressing, 48 h
Protocol: as §1, §2, §3, §4

[2] = 5 mg/kg p.o., Prophylactic regime
[3] = 5 mg/kg p.o., Therapeutic regime
[4] = 15 mg/kg p.o., Prophylactic regime
[5] = 15 mg/kg p.o., Therapeutic regime

Sequence of FKBP12 (P62942 whole entry, species assumed): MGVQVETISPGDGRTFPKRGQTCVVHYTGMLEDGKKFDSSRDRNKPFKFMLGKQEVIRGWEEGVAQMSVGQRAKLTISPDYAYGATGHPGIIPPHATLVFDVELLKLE

For COC1CC2CCC(C)C(O)(O2)C(=O)C(=O)N2CCCCC2C(=O)OC(C(C)CC2CCC(O)CC2)CC(=O)C(C)C=C(C)C(O)C(OC)C(=O)C(C)CC(C)C=CC=CC=C1C (stereo not drawn) [39-desmethoxyrapamycin], the Kd (FKBP12) was 0.7 nM, the “Cumulative score Mean ± St Dev.” value (EAE; [2]) was 17 ± 4.6 and the “Duration (days) Mean ± St Dev.” value (EAE; [2]) was 10 ± 1.8 days. For the same compound, the “Onset Mean ± St Dev.” value (EAE; [2]) was 12 ± 2.1, the “Cumulative score Mean ± St Dev.” value (EAE; [3]) was 30 ± 3.1 and the “Duration (days) Mean ± St Dev.” value (EAE; [3]) was 15 ± 1.3 days. The “Onset Mean ± St Dev.” value (EAE; [3]) was 10 ± 1.0, the “Cumulative score Mean ± St Dev.” value (EAE; [4]) was 22 ± 22 and the “Duration (days) Mean ± St Dev.” value (EAE; [4]) was 10 ± 3.4 days. The “Onset Mean ± St Dev.” value (EAE; [4]) was 12 ± 2.4, the “Cumulative score Mean ± St Dev.” value (EAE; [5]) was 32 ± 5.7 and the “Duration (days) Mean ± St Dev.” value (EAE; [5]) was 16 ± 3.3 days. For the same compound, the “Onset Mean ± St Dev.” value (EAE; [5]) was 9 ± 1.4, the “efficacy in the EAE model compared to cyclophosphamide” value (EAE; 5 and 15 mg/kg, prophylactic and therapeutic regime) was “equivalent efficacy in this model to cyclophosphamide” and the AUCBLOOD i.v. ([1]; iv, 3 mg/kg) was 15444.3. It also gave an AUCBRAIN i.v. ([1]; iv, 3 mg/kg) of 24911.4, an AUCBLOOD p.o. ([1]; po, 10 mg/kg) of 16856.5 and an AUCBRAIN p.o. ([1]; po, 10 mg/kg) of 1697.69.
Compound CO[C@H]1C[C@@H]2CC[C@@H](C)[C@@](O)(O2)C(=O)C(=O)N2CCCC[C@H]2C(=O)O[C@H]([C@H](C)C[C@@H]2CC[C@@H](O)[C@H](OC)C2)CC(=O)[C@H](C)/C=C(\C)[C@@H](O)[C@@H](OC)C(=O)[C@H](C)C[C@H](C)/C=C/C=C/C=C/1C [Rapamycin] has a GI50 (HOP-62) of 234 nM, a GI50 (SW-620) of 25100 nM and a GI50 (UO-31) of 100 nM.
